In PMC3856890 (Nature methods, 2013):

Molecular target: T1, Pdp (pyrimidine-nucleoside phosphorylase) (Mycoplasmoides genitalium, UniProt P47297)
T1 sequence (P47297 1-421): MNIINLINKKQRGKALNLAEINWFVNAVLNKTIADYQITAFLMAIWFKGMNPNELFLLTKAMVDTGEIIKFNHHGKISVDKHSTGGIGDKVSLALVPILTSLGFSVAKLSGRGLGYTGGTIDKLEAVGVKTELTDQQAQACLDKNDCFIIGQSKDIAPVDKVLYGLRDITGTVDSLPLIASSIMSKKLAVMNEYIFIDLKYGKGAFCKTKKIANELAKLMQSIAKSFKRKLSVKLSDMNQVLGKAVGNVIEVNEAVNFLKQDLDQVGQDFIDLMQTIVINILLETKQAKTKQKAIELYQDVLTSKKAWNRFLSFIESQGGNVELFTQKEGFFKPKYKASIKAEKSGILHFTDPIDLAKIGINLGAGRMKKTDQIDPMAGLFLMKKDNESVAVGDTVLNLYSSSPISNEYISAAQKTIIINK
Experiment: uracil production at […] nm after NaOH stop
Type: biochemical
Conditions: 1.25-12.5 mM deoxyuridine; 10 mM phosphate; 10 mM Tris pH 7.3; 1 mM EDTA; 37 C

Structure (SMILES): O=c1cc[nH]c(=O)[nH]1 [uracil]
- uracil production at 290 nm after NaOH stop: We determined uracil production by A290.
